Measurements reported in US4156724A, “N-acylamino-alpha-arylacetamido cephalosporins and antibacterial compositions and methods containing them” (Sumitomo Chemical Company, Limited, priority 1974, dated 1979).
Converted amounts (≈) assume the structure as drawn. Like-named read-outs stand apart in the source and are kept apart here.

Assays:
Type in all cases: cell-based
[1] = tested on: Pseudomonas aeruginosa 104; assay: Minimum Inhibitory Concentration, Pseudomonas aeruginosa 104
Protocol: (§1) anti-microbial activity tests were carried out on the compounds obtained in the Examples.

[2] = tested on: Enterobacter aerogeneus No. 75; assay: Minimum Inhibitory Concentration, Enterobacter aerogeneus No. 75
Protocol: as §1

[3] = tested on: Serratia No. 72; assay: Minimum Inhibitory Concentration, Serratia No. 72
Protocol: as §1

[4] = tested on: Staphylococcus aureus 209 P; assay: Minimum Inhibitory Concentration, Staphylococcus aureus 209 P; details: for MIC: read-out: Minimum Inhibitory Concentration
Protocol: as §1

[5] = tested on: Staphylococcus aureus FS 289; assay: Minimum Inhibitory Concentration, Staphylococcus aureus FS 289
Protocol: as §1
*Staphylococcus aureus FS 289: strain resistant to penicillin

[6] = tested on: Escherichia coli NIHJ; assay: Minimum Inhibitory Concentration, Escherichia coli NIHJ; details: for MIC: read-out: Minimum Inhibitory Concentration
Protocol: as §1

[7] = tested on: Klebsiella pneumoniae 602; assay: Minimum Inhibitory Concentration, Klebsiella pneumoniae 602
Protocol: as §1

[8] = tested on: Proteus vulgaris HX 19; assay: Minimum Inhibitory Concentration, Proteus vulgaris HX 19
Protocol: as §1

[9] = Pseudomonas aeruginosa 104, read-out: Minimum Inhibitory Concentration
[10] = Enterobacter aerogeneus No. 75, read-out: Minimum Inhibitory Concentration
[11] = FS289, Staphylococcus aureus FS 289, strain resistant to penicillin, read-out: Minimum Inhibitory Concentration
[12] = Klebsiella pneumoniae, 602, Klebsiella pneumoniae 602, read-out: Minimum Inhibitory Concentration
[13] = HX19, Proteus vulgaris HX 19, read-out: Minimum Inhibitory Concentration
[14] = Staphylococcus aureus, FS289, read-out: Minimum Inhibitory Concentration

| Structure (SMILES) | MIC [1, 9] [µg/mL] | MIC [2, 10] [µg/mL] | MIC [3] [µg/mL] | MIC ([4]; Staphylococcus aureus 209 P) [µg/mL] | MIC [5, 11] [µg/mL] | MIC ([6]; Escherichia coli NIHJ) [µg/mL] | MIC [7, 12] [µg/mL] | MIC [8, 13] [µg/mL] | other results |
| --- | --- | --- | --- | --- | --- | --- | --- | --- | --- |
| CC(=O)OCC1=C(C(=O)O)N2C(=O)C(NC(=O)C(NC(=O)c3cnccc3O)c3ccc(CO)cc3)C2SC1 (racemic) [Example 88, 7-[DL-α-(4-Hydroxypyridine-3-carbonamido)-α-p-hydroxymethylphenylacetamido]cephalosporanic Acid] | 12.5 (≈ 22.5 µM) | 25 (≈ 44.9 µM) | > 200 | 0.78 (≈ 1.4 µM) | 6.25 (≈ 11.2 µM) | 25 (≈ 44.9 µM) | 25 (≈ 44.9 µM) | 0.39 (≈ 0.701 µM) |  |
| CC(=O)OCC1=C(C(=O)O)N2C(=O)C(NC(=O)C(NC(=O)c3cnc4cccnc4c3O)c3ccc(CO)cc3)C2SC1 (racemic) [Example 89, 7-[DL-α-(4-Hydroxy-1,5-naphthyridine-3-carbonamido)-α-p-hydroxymethylphenylacetamido]cephalosporanic Acid] | 6.25 (≈ 10.3 µM) | 6.25 (≈ 10.3 µM) | 50 (≈ 82.3 µM) | 1.56 (≈ 2.57 µM) | 6.25 (≈ 10.3 µM) | 3.13 (≈ 5.15 µM) | 1.56 (≈ 2.57 µM) | 0.78 (≈ 1.28 µM) |  |
| Cc1nnc(SCC2=C(C(=O)O)N3C(=O)C(NC(=O)C(NC(=O)c4cnccc4O)c4ccc(CO)cc4)C3SC2)s1 (racemic) [Example 90, 7-[DL-α-(4-Hydroxypyridine-3carbonamido)-α -p-hydroxymethylphenylacetamido]-3-(2-methyl-1,3,4-thiadiazol-5-yl)thiomethyl-3-cephem-4-carboxylic Acid] | 12.5 (≈ 19.9 µM) | 12.5 (≈ 19.9 µM) | > 200 | 0.78 (≈ 1.24 µM) | 6.25 (≈ 9.94 µM) | 12.5 (≈ 19.9 µM) | 25 (≈ 39.8 µM) | 0.39 (≈ 0.62 µM) |  |
| CC(=O)OCC1=C(C(=O)O)N2C(=O)[C@@H](NC(=O)[C@H](N)c3ccccc3)[C@H]2SC1 [CEG, reference compound] | > 200 | 50 (≈ 123 µM) | > 200 | 1.56 (≈ 3.85 µM) | 12.5 (≈ 30.8 µM) | 12.5 (≈ 30.8 µM) | 3.13 (≈ 7.72 µM) | 12.5 (≈ 30.8 µM) |  |
| CC(=O)OCC1=C(C(=O)O)N2C(=O)[C@@H](NC(=O)Cc3cccs3)[C@H]2SC1 [CET, reference compound] |  |  | > 200 |  |  |  |  |  | MIC ([1]; Pseudomonas aeruginosa, 104, read-out: Minimum Inhibitory Concentration): > 200 µg/mL; MIC ([2]; Enterobacter, NO.75, read-out: Minimum Inhibitory Concentration): > 200 µg/mL; MIC ([4]; Staphylococcus aureus, 209P): 0.1 µg/mL (≈ 0.252 µM); MIC [5, 14]: 0.78 µg/mL (≈ 1.97 µM); MIC ([6]; Escherichia coli): 12.5 µg/mL (≈ 31.5 µM); MIC ([7]; Klebsiella pneumoniae, 602, read-out: Minimum Inhibitory Concentration): 0.78 µg/mL (≈ 1.97 µM); MIC ([8]; Proteus vulgaris, HX19, read-out: Minimum Inhibitory Concentration): 3.13 µg/mL (≈ 7.9 µM) |
| Cc1nnc(SCC2=C(C(=O)O)N3C(=O)[C@@H](NC(=O)Cn4cnnn4)[C@H]3SC2)s1 [CEZ, reference compound] | > 200 | 100 (≈ 220 µM) | > 200 | 0.2 (≈ 0.44 µM) |  |  | 0.78 (≈ 1.72 µM) | 6.25 (≈ 13.8 µM) | MIC [5, 14]: 1.56 µg/mL (≈ 3.43 µM); MIC ([6]; Escherichia coli): 1.56 µg/mL (≈ 3.43 µM) |
| CC(=O)OCC1=C(C(=O)O)N2C(=O)[C@@H](NC(=O)[C@H](NC(=O)c3cnccc3O)c3ccc(NC(N)=O)cc3)[C@H]2SC1 [Example 1, 7-[D-α-(4-Hydroxypyridine-3-carboxyamido)-α-p-ureidophenylacetamido]cephalosporanic Acid] | 6.25 (≈ 10.7 µM) | 25 (≈ 42.8 µM) | > 200 | 0.39 (≈ 0.667 µM) | 3.13 (≈ 5.35 µM) | 12.5 (≈ 21.4 µM) | 12.5 (≈ 21.4 µM) | 0.2 (≈ 0.342 µM) |  |
| CC(=O)OCC1=C(C(=O)O)N2C(=O)[C@@H](NC(=O)[C@H](NC(=O)c3cnccc3O)c3cccc(NC(N)=O)c3)[C@H]2SC1 [Example 2] | 6.25 (≈ 10.7 µM) | 25 (≈ 42.8 µM) | > 200 | 0.39 (≈ 0.667 µM) | 6.25 (≈ 10.7 µM) | 12.5 (≈ 21.4 µM) | 12.5 (≈ 21.4 µM) | 0.39 (≈ 0.667 µM) |  |
| CC(=O)OCC1=C(C(=O)O)N2C(=O)[C@@H](NC(=O)[C@H](NC(=O)c3cccnc3O)c3ccc(NC(N)=O)cc3)[C@H]2SC1 [Example 3] | 12.5 (≈ 21.4 µM) | 25 (≈ 42.8 µM) | > 200 | 0.39 (≈ 0.667 µM) | 6.25 (≈ 10.7 µM) | 25 (≈ 42.8 µM) | 25 (≈ 42.8 µM) | 0.39 (≈ 0.667 µM) |  |
| CC(=O)OCC1=C(C(=O)[O-])N2C(=O)C(NC(=O)C(NC(=O)c3ccnnc3O)c3ccc(NC(N)=O)cc3)C2SC1.[Na+] (stereo not shown) [Example 4] |  |  |  |  |  |  |  |  | Minimum Inhibitory Concentration ([1]; Pseudomonas aeruginosa 104): 25 µg/mL; Minimum Inhibitory Concentration ([2]; Enterobacter aerogeneus No. 75): 50 µg/mL; Minimum Inhibitory Concentration [3]: 100 µg/mL; Minimum Inhibitory Concentration ([4]; Staphylococcus aureus 209 P): 0.39 µg/mL; Minimum Inhibitory Concentration ([5]; Staphylococcus aureus FS 289, strain resistant to penicillin): 6.25 µg/mL; Minimum Inhibitory Concentration ([6]; Escherichia coli NIHJ): 6.25 µg/mL; Minimum Inhibitory Concentration ([7]; Klebsiella pneumoniae 602): 6.25 µg/mL; Minimum Inhibitory Concentration ([8]; Proteus vulgaris HX 19): 0.2 µg/mL |
| CC(=O)OCC1=C(C(=O)O)N2C(=O)[C@@H](NC(=O)[C@H](NC(=O)c3cncnc3O)c3ccc(NC(N)=O)cc3)[C@H]2SC1 [Example 5] | 12.5 (≈ 21.3 µM) | 50 (≈ 85.4 µM) | 200 (≈ 342 µM) | 0.39 (≈ 0.666 µM) | 6.25 (≈ 10.7 µM) | 12.5 (≈ 21.3 µM) | 12.5 (≈ 21.3 µM) | 0.39 (≈ 0.666 µM) |  |
| CC(=O)OCC1=C(C(=O)O)N2C(=O)[C@@H](NC(=O)[C@H](NC(=O)c3cnc(O)nc3O)c3ccc(NC(N)=O)cc3)[C@H]2SC1 [Example 6] | 12.5 (≈ 20.8 µM) | 25 (≈ 41.6 µM) | 200 (≈ 332 µM) | 0.39 (≈ 0.648 µM) | 6.25 (≈ 10.4 µM) | 12.5 (≈ 20.8 µM) | 12.5 (≈ 20.8 µM) | 0.2 (≈ 0.332 µM) |  |
| CC(=O)OCC1=C(C(=O)O)N2C(=O)[C@@H](NC(=O)[C@H](NC(=O)c3cnc4cccnc4c3O)c3ccc(NC(N)=O)cc3)[C@H]2SC1 [Example 7] | 6.25 (≈ 9.83 µM) | 6.25 (≈ 9.83 µM) | 50 (≈ 78.7 µM) | 0.78 (≈ 1.23 µM) | 6.25 (≈ 9.83 µM) | 3.13 (≈ 4.92 µM) | 3.13 (≈ 4.92 µM) | 0.78 (≈ 1.23 µM) |  |
| CC(=O)OCC1=C(C(=O)O)N2C(=O)[C@@H](NC(=O)[C@H](NC(=O)c3cnc4nc(C)ccc4c3O)c3ccc(NC(N)=O)cc3)[C@H]2SC1 [Example 8] | 6.25 (≈ 9.62 µM) | 12.5 (≈ 19.2 µM) | 50 (≈ 77 µM) | 0.78 (≈ 1.2 µM) | 6.25 (≈ 9.62 µM) | 6.25 (≈ 9.62 µM) | 12.5 (≈ 19.2 µM) | 0.39 (≈ 0.6 µM) |  |
| CC(=O)OCC1=C(C(=O)O)N2C(=O)[C@@H](NC(=O)[C@H](NC(=O)c3nnc4ccccc4c3O)c3ccc(NC(N)=O)cc3)[C@H]2SC1 [Example 9] | 12.5 (≈ 19.7 µM) | 12.5 (≈ 19.7 µM) | 50 (≈ 78.7 µM) | 0.78 (≈ 1.23 µM) | 6.25 (≈ 9.83 µM) | 12.5 (≈ 19.7 µM) | 12.5 (≈ 19.7 µM) | 0.39 (≈ 0.614 µM) |  |
| Cc1nnc(SCC2=C(C(=O)O)N3C(=O)[C@@H](NC(=O)[C@H](NC(=O)c4cnccc4O)c4ccc(NC(N)=O)cc4)[C@H]3SC2)s1 [Example 12, 7-[D-α-(4-Hydroxypyridine-3-carboxyamido)-α-(p-ureidophenyl)acetamido]-3-(2-methyl-1,3,4-thiadiazol-5-yl)thiomethyl-3-cephem-4-carboxylic Acid] | 6.25 (≈ 9.52 µM) | 12.5 (≈ 19 µM) | 50 (≈ 76.1 µM) | 0.39 (≈ 0.594 µM) | 6.25 (≈ 9.52 µM) | 6.25 (≈ 9.52 µM) | 6.25 (≈ 9.52 µM) | 0.1 (≈ 0.152 µM) |  |
| Cn1nnnc1SCC1=C(C(=O)O)N2C(=O)[C@@H](NC(=O)[C@H](NC(=O)c3cnccc3O)c3ccc(NC(N)=O)cc3)[C@H]2SC1 [Example 13, 7-[D-α-(4-Hydroxypyridine-3-carboxyamido)-α-(p-ureidophenyl)acetamido]-3-(1-methyltetrazol-5-yl)-thiomethyl-3-cephem-4-carboxylic Acid] | 6.25 (≈ 9.76 µM) | 12.5 (≈ 19.5 µM) | 50 (≈ 78 µM) | 0.39 (≈ 0.609 µM) | 6.25 (≈ 9.76 µM) | 6.25 (≈ 9.76 µM) | 3.13 (≈ 4.89 µM) | 0.2 (≈ 0.312 µM) |  |
